# Data taken from US20250052985A1, “SYSTEM AND METHOD FOR QUANTITATIVE PHASE IMAGING FOR MULTI-PARAMETRIC SCREENING OF TUMOR THERAPY RESPONSE” (UNIVERSITY OF UTAH RESEARCH FOUNDATION, priority 2023, published 2025).
# “And” between values parts separate entries of the source, which are not always exact repeats. Identical values can stand only once.
# Key:
# BT-474 cells [1] = test: cells; conditions: for Max Asymptote / Min Asymptote: BT-474, 4-parameter Hill fit of mean SGR vs concentration, one line per replicate; for Hill Slope / log10(EC50): BT-474, Hill fit; for log10(EC50): EC50 in μM per Table 1
# From the text: (§1) In some embodiments, breast cancer cell lines are imaged, representing diverse clinical subtypes, summarized in Table 2 below, using a QPI microscope (FIG. 1A) based on differential phase contrast (DPC) microscopy and phase reconstruction via a QPI microscope system. DPC is used for image acquisition and phase reconstruction because DPC's flexible design may be customized for high throughput phase measurements. […] As illustrated in the embodiment of FIG. 1A, a QPI microscope system 100 conducts assays in a 96-well plate (e.g., a well-plate 105) with 6-point dose response curves and up to five therapies in triplicate including solvent controls, summarized in Table 4 below. As described below, in reference to FIG. 1A, a growth response of cells is measured noninvasively using QPI via a QPI microscope system 110 before being assayed using a CTG reader 115.
# (§2) FIG. 1B illustrates a timeline plot 200 showing two plates (e.g., two, separate well-plates 105) set up in parallel to measure cell viability. With reference to FIG. 1B, two plates are set-up simultaneously for each experiment. A first plate 205 is incubated for 27 hours (h) post drug exposure prior to CTG analysis (3 h equilibration+24 h of imaging), which measures cell adenosine triphosphate (ATP) content as a surrogate for cell viability. A second plate 210 is imaged for 72 h after 3 h equilibration (e.g., 75 h) and followed by CTG. […] The imaging locations are imaged for 72 h, as shown by images 1700-1715 of FIG. 7.
# (§3) In some embodiments, a dose-dependent change in growth, as indicated by a change in the rate of mass accumulation or loss, is a parameter that can be extracted from QPI dose-response data. […] Individual specific growth rate measurements are indicated by points in the distribution of the graph 1200 of FIG. 2A. Blue is indicative of the DMSO control and red is indicative of doxorubicin. The black outline is a kernel density function fit to the distribution of specific growth rates for each condition (e.g., *p<0.05, **p<0.01). In some embodiments, the average SGR of each condition is fit to a sigmoid dose-response curve using a Hill equation. For example, computed logistic fit parameters using a 4-parameter Hill model via the QPI microscope system 110 for all conditions are summarized in Tables 5-8 below. To determine if there is a response, as illustrated by FIG. 2B, the QPI microscope system 110 tests goodness of fit, adjusts for degrees of freedom using an F-test at significance p<0.01 by comparison to a flat line, as an indicator of no response. For cases with a better fit to the Hill equation, the 4-parameter Hill curve may be used by the QPI microscope system 110 to determine the EC50, a measure of sensitivity to therapy because it represents the effective concentration at which 50% of the cells respond to therapy, as illustrated by FIG. 10. […] A 4-parameter Hill curve is fit to each dose response plot to extract the depth of response and EC50 for each cell/drug pair. A flat line represents no response due to failure of the F-test to reject the null hypothesis that the logistic fit is indistinguishable from a flat line. […] Each color indicates a different drug or therapy used.
# MCF-7 cells [2] = test: cells
# From the text: as §1, §2, §3
# MCF-7 cells [3] = test: CellTiter-Glo (CTG) ATP viability assay, MCF-7; assay type: cell-based; conditions: for Min Asymptote: MCF-7, Hill fit of luminescence normalized to solvent control, one line per replicate
# Protocol: (§4) CTG (e.g., read by the CTG reader 115) is a cell viability assay that quantifies the amount of ATP present at the end of an experiment as an indicator of the number of live cells. The electronic controller 155 measures ATP content in each condition as a readout by a luminescent signal, which is normalized by the luminescence of the control (e.g., a control well) to determine cell viability relative to on-plate controls. In some embodiments, the CTG assay is performed by first removing 100 μL of media from each well on the well-plate 105, which is then replaced with an equal amount of CellTiter-Glo reagent (e.g., Promega, G7572). Assayed plates may be shaken at 500 RPM for 20 minutes and allowed to rest for 10 minutes. In some instances, 100 μL of volume from each well is transferred to a white 96-well plate (e.g., Perkin Elmer, 6005680). The electronic controller 155 collects luminescence data from each well using an Envision plate reader (e.g., Perkin Elmer) and normalized against the solvent control to measure ATP content. The electronic controller 155 fits a 4-parameter hill curve to the dose response to determine the EC50 and depth of response.
# BT-474 cells [4] = test: CellTiter-Glo (CTG) ATP viability assay, BT-474; assay type: cell-based; conditions: for Hill Slope / log10(EC50): BT-474, Hill fit; for Min Asymptote: BT-474, Hill fit of luminescence normalized to solvent control, one line per replicate
# Protocol: as §4
# MDA-MB-231 cells = test: Quantitative phase imaging (QPI) growth response, MDA-MB-231; assay type: cell-based; parameters: DoR QPI: scale not given here; ToR 20 μM: unit not given here; conditions: for Max Asymptote / Min Asymptote: MDA-MB-231, 4-parameter Hill fit of mean SGR vs concentration, one line per replicate; for log10(EC50): EC50 in μM per Table 1
# From the text: as §1, §2, §3
smiles,measurement,setting,value
"CCC(=C(c1ccc(O)cc1)c1ccc(OCCN(C)C)cc1)c1ccccc1 [4HT, 4-hydroxy-Tamoxifen]",Max Asymptote,BT-474 cells [1]; 24 h QPI,0.01232 and 0.00969 and 0.009107
same,Min Asymptote,BT-474 cells [1]; 24 h QPI,−0.01613 and −0.02375 and −0.02493
same,Hill Slope,BT-474 cells [1]; 24 h QPI,2.303 and 3.2307 and 3.3723
same,log10(EC50),BT-474 cells [1]; 24 h QPI,−1.1593 and −1.2498 and −1.2667
same,Max Asymptote,BT-474 cells [1]; 72 h QPI,−0.01224 and −0.01212 and −0.01166
same,Min Asymptote,BT-474 cells [1]; 72 h QPI,0.009052 and 0.007511 and 0.008099
same,Hill Slope,BT-474 cells [1]; 72 h QPI,3.3746 and 3.7567 and 4.6177
same,log10(EC50),BT-474 cells [1]; 72 h QPI,−1.2566 and −1.2595 and −1.2511
same,response of growth rate and heterogeneity to treatment,"BT-474 cells [1]; BT-474, FIG. 5E, 22, 23",both reduced growth rate and slightly increased heterogeneity
same,growth rate and heterogeneity as concentration increases,"BT-474 cells [1]; BT-474, FIG. 22",decrease in growth rate at approximately constant standard deviation
same,growth rate and heterogeneity over time,"BT-474 cells [1]; BT-474, FIG. 23 Graph F","first experiencing reduced growth rate, and then a large spike in heterogeneity"
same,DoR QPI,"BT-474 cells [1]; BT-474 cell line, depth of response, QPI",2.5
same,ToR 20 μM,"BT-474 cells [1]; BT-474 cell line, time of response at 20 μM",−0.9815
same,EC50,"BT-474 cells [1]; read-out: EC50, QPI, BT-474 cell line, QPI growth rate",18 µM
same,Max Asymptote,"MCF-7 cells [2]; 24 h QPI, MCF-7, 4-parameter Hill fit of mean SGR vs concentration, one line per replicate",0.02753 and 0.02505 (2×)
same,log10(EC50),"MCF-7 cells [2]; 24 h QPI, MCF-7, Hill fit, EC50 in μM per Table 1",−1.3545
same,Min Asymptote,"MCF-7 cells [2]; 72 h QPI, MCF-7, 4-parameter Hill fit of mean SGR vs concentration, one line per replicate",0.02137 and 0.02094 and 0.02499
same,DoR QPI,"MCF-7 cells [2]; MCF-7 cell line, depth of response, QPI",2.1
same,ToR 20 μM,"MCF-7 cells [2]; MCF-7 cell line, time of response at 20 μM",−1.3078
same,EC50,"MCF-7 cells [2]; read-out: EC50, QPI, MCF-7 cell line, QPI growth rate",75.2 µM
same,Min Asymptote,MCF-7 cells [3]; 24 h CTG,7.96E−12 and 5.22E−09
same,log10(EC50),"MCF-7 cells [3]; 72 h CTG, MCF-7, Hill fit",−0.5373 and −0.5549 and −0.6776
same,Min Asymptote,MCF-7 cells [3]; 72 h CTG,2.23E−14 and 2.22E−14 and 3.01E−12
same,EC50,"MCF-7 cells [3]; MCF-7 cell line, CellTiter-Glo, read-out: EC50, CTG (converted)",3.9 µM
same,DoR CTG,"MCF-7 cells [3]; MCF-7 cell line, depth of response, CellTiter-Glo",1.0
same,Hill Slope,BT-474 cells [4]; 24 h CTG,4.596
same,log10(EC50),BT-474 cells [4]; 24 h CTG,−0.736
same,Min Asymptote,BT-474 cells [4]; 24 h CTG,0.07942
same,Hill Slope,BT-474 cells [4]; 72 h CTG,3.312 and 3.655
same,log10(EC50),BT-474 cells [4]; 72 h CTG,−0.6116 and −0.6471
same,Min Asymptote,BT-474 cells [4]; 72 h CTG,1.76E−08 (2×) and 8.28E−08
same,EC50,"BT-474 cells [4]; BT-474 cell line, CellTiter-Glo, read-out: EC50, CTG",4.2 µM
same,DoR CTG,"BT-474 cells [4]; BT-474 cell line, depth of response, CellTiter-Glo",1.0
same,Max Asymptote,MDA-MB-231 cells; 24 h QPI,0.02875 and 0.03107 and 0.03303
same,Min Asymptote,MDA-MB-231 cells; 24 h QPI,0.007676 and 0.007611 and −0.003024
same,log10(EC50),"MDA-MB-231 cells; 24 h QPI, MDA-MB-231, Hill fit",−1.2332 and −1.2248 and −1.2436
same,Max Asymptote,MDA-MB-231 cells; 72 h QPI,−0.006134 and −0.01506 and −0.008455
same,Min Asymptote,MDA-MB-231 cells; 72 h QPI,0.02885 and 0.03029 and 0.03246
same,Hill Slope,"MDA-MB-231 cells; 72 h QPI, MDA-MB-231, Hill fit",2.0951 and 2.4347 and 1.6101
same,log10(EC50),"MDA-MB-231 cells; 72 h QPI, MDA-MB-231, Hill fit",−1.2344 and −1.2249 and −1.0505
same,growth rate and heterogeneity over time,"MDA-MB-231 cells; MDA-MB-231, highest concentration, FIG. 21 F",first decreases in growth rate and then decreases in heterogeneity
same,mean SGR vs SD of growth parameterized by time,"MDA-MB-231 cells; MDA-MB-231, maximal concentration, FIG. 5D",reduction in growth rate before heterogeneity is affected
same,EC50,"MDA-MB-231 cells; MDA-MB-231 cell line, QPI growth rate, read-out: EC50, QPI",15.1 µM
same,DoR QPI,"MDA-MB-231 cells; MDA-MB-231 cell line, depth of response, QPI",1.3
same,ToR 20 μM,"MDA-MB-231 cells; MDA-MB-231 cell line, time of response at 20 μM",1.0
